Measurements as given in patent US11657895B2, “Methods for identifying treatment targets based on multiomics data” (INSTITUTE FOR SYSTEMS BIOLOGY, priority 2016, dated 2023).

Columns and labels:
[1] = tested on: HA, T98G and U251 cell lines; assay: Apoptosis screen across the HA, T98G and U251 cell lines; type: cell-based, human; settings: oncogene inhibitor paired with miRNA mimic(s) targeting the same oncogene; cell lines listed
[2] = tested on: HA, T98G and U251 cell lines; assay: Proliferation screen across the HA, T98G and U251 cell lines; settings: for Signficant Effect on Proliferation (cell lines): oncogene inhibitor paired with miRNA mimic(s) targeting the same oncogene, cell lines listed
U251 = assay: Proliferation in GBM-derived cell line U251; type: cell-based; settings: Homo sapiens, U-251
GBM cell lines = settings: 1.85 nM romidepsin, Sawa et al., 2004; cited from earlier work
[3] = Iwamoto et al., 2011; cited from earlier work

## CNC(=O)c1cc(Oc2ccc(NC(=O)Nc3ccc(Cl)c(C(F)(F)F)c3)cc2)ccn1 [Sorafenib, 4-[4-[[4-chloro-3-(trifluoromethyl)phenyl]carbamoylamino]phenoxy]-N-methyl-pyridine-2-carboxamide]
[1]
  Significant Effect on Apoptosis (cell lines): HA, 198G

## O=C(CCCCCCC(=O)Nc1ccccc1)NO [Vorinostat, N-Hydroxy-N′-phenyloctanediamide]
[2]
  Signficant Effect on Proliferation (cell lines): HA, U251

## C/C=C1\NC(=O)[C@H]2CSSCC/C=C/[C@H](CC(=O)N[C@H](C(C)C)C(=O)N2)OC(=O)[C@H](C(C)C)NC1=O [romidepsin, (1S,4S,7Z,10S,16E,21R)-7-ethylidene-4,21-diisopropyl-2-oxa-12,13-dithia-5,8,20,23-tetrazabicyclo[8.7.6]tricos-16-ene-3,6,9,19,22-pentone]
U251
  IC50: 1.1 nM
GBM cell lines
  Effect in GBM cell lines: anti-proliferative and pro-apoptotic
[3]
  half-life in patients: short half-life
[2]
  Rank of single-agent effects on proliferation and apoptosis: strongest effects on proliferation and apoptosis in every cell line
  Signficant Effect on Proliferation (cell lines): HA, U251
